This is an account of results in patent US11739068B2, “Polymorphs of N-[(3-fluoro-4-methoxypyridin-2-yl)methyl]-3-(methoxymethyl)-1-({4-[(2-oxopyridin-1-yl)methyl]phenyl}methyl)pyrazole-4-carboxamide and salts thereof” (KALVISTA PHARMACEUTICALS LIMITED, priority 2016, dated 2023).

For data set [1] the following is noted: in vivo; cited from earlier work.
Data set [2] is described as follows: Visual aqueous solubility. The note with it: water, thermodynamic from solid. Type of data set: physicochemical. The method, then:
Form 1 (10 mg) was weighed into a glass vial and water was added in 100 μL portions up to 3 mL then 1 mL portions thereafter. Solubility was assessed visually following a brief period of equilibration.
Form 18 (10 mg) was weighed into a glass vial and water was added in 100 μL portions up to 3 mL then 1 mL portions thereafter. Solubility was assessed visually following a brief period of equilibration.
Form 8 (10 mg) was weighed into a glass vial and water was added in 100 μL portions up to 3 mL then 1 mL portions thereafter. Solubility was assessed visually following a brief period of equilibration.
Form 15 (10 mg) was weighed into a glass vial and water was added in 100 μL portions up to 3 mL then 1 mL portions thereafter. Solubility was assessed visually following a brief period of equilibration.
Form 16 (10 mg) was weighed into a glass vial and water was added in 100 μL portions up to 3 mL then 1 mL portions thereafter. Solubility was assessed visually following a brief period of equilibration.

Data set [3] in a line: Gravimetric Vapour Sorption (GVS). The data set is classed as physicochemical. The method, then: Gravimetric Vapour Sorption (GVS) data were collected using the following method: Approximately 10 mg of sample was placed into a wire-mesh vapour sorption balance pan and loaded into an ‘IgaSorp’ vapour sorption balance (Hiden Analytical Instruments). The sample was then dried by maintaining a 0% humidity environment until no further weight change was recorded. Subsequently, the sample was then subjected to a ramping profile from 0-90% RH at 10% RH increments, maintaining the sample at each step until equilibration had been attained (99% step completion). Upon reaching equilibration, the % RH within the apparatus was ramped to the next step and the equilibration procedure repeated. After completion of the sorption cycle, the sample was then dried using the same procedure. The weight change during the sorption/desorption cycles were then monitored, allowing for the hygroscopic nature of the sample to be determined.

Data set [4] is described as follows: Stability study of Form 1 (double polyethylene bags, HDPE bottle). Type of data set: physicochemical. The note with it: for Change in the XRPD diffractogram on storage: after 1 month and 3 months. As for the experimental part:
Further evidence of the suitability of the crystalline forms of N-[(3-fluoro-4-methoxypyridin-2-yl)methyl]-3-(methoxymethyl)-1-({4-[(2-oxopyridin-1-yl)methyl]phenyl}methyl)pyrazole-4-carboxamide for pharmaceutical development is provided by the stability data disclosed herein. Two samples of Form 1 of N-[(3-fluoro-4-methoxypyridin-2-yl)methyl]-3-(methoxymethyl)-1-({4-[(2-oxopyridin-1-yl)methyl]phenyl}methyl)pyrazole-4-carboxamide were stored at 25° C./60% RH and 40° C./75% RH packed in double polyethylene bags and sealed in a HDPE bottle.
A sample of Form 1 was packed in double polyethylene bags and sealed in a HDPE bottle and stored at conditions of 25° C./60% RH. The sample was reanalysed after 1 month and 3 months by XRPD (using Method B). No change in the XRPD diffractogram was observed when the sample was stored at 25° C./60% RH after either 1 month or 3 months.
Further tests on the sample of Form 1 stored at 25° C./60% RH were carried out as described in the table below:
A second sample of Form 1 was packed in double polyethylene bags and sealed in a HDPE bottle and stored under accelerated stability conditions of 40° C./75% RH. The sample was reanalysed after 1 month and 3 months by XRPD (using Method B). No change in the XRPD diffractogram was observed when the sample was stored at 40° C./75% RH after either 1 month or 3 months.
Further tests on the sample of Form 1 stored at 40° C./75% RH were carried out as described in the table below: […]

Data set [5] in a line: Slurry studies. The data set is classed as physicochemical. The note with it: 90/10 IPA/water, ambient temperature, 72 hrs. As for the experimental part: Form 1 (20 mg) was suspended in 90/10 IPA/water (200 μL or […]) and shaken at ambient temperature for 72 hrs. The supernatant was evaporated rather than filtered due to the small volume and the resulting solid was examined by XRPD (FIG. 6).
The supernatant was evaporated rather than filtered due to the small volume and the resulting solid was examined by XRPD (FIG. 28).
The supernatant was evaporated rather than filtered due to the small volume and the resulting solid was examined by XRPD (FIG. 34).
The supernatant was evaporated rather than filtered due to the small volume and the resulting solid was examined by XRPD (FIG. 40).

Data set [6] addresses T1, Human KLK1 (Homo sapiens, UniProt P06870).
T1 construct: purchased Callbiochem
In words: Determination of the IC50 for KLK1. The data set is classed as biochemical. The note with it: 25° C., fluorogenic substrate H-DVal-Leu-Arg-AFC. The method, then:
KLK1 inhibitory activity in vitro was determined using standard published methods (see e.g. Johansen et al., Int. J. Tiss. Reac. 1986, 8, 185; Shori et al., Biochem. Pharmacol., 1992, 43, 1209; Sturzebecher et al., Biol. Chem. Hoppe-Seyler, 1992, 373, 1025). Human KLK1 (Callbiochem) was incubated at 25° C. with the fluorogenic substrate H-DVal-Leu-Arg-AFC and various concentrations of the test compound. Residual enzyme activity (initial rate of reaction) was determined by measuring the change in […] at 410 nm and the IC50 value for the test compound was determined.

Data set [7] concerns LPS-induced disseminated intravascular coagulation. The note with it: cited from earlier work.
In data set [8] the test system is blood. The note with it: blood contacted with inhibitor; cited from earlier work.
In data set [9] the test system is intrinsic pathway of coagulation. The note with it: in vitro; cited from earlier work.
For data set [10] the following is noted: in vivo; cited from earlier work. The source holds these as a separate data set.

T1 sequence (P06870 25-262): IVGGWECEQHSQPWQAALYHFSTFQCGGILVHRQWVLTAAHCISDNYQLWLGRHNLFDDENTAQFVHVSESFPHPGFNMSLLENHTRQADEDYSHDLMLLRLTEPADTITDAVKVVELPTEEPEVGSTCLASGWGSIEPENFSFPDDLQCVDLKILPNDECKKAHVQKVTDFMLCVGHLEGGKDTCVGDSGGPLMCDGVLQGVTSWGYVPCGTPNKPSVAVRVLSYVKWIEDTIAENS

As to `C=Cc1cc(C(=O)Nc2ccc(C(=N)N)cc2)c(-c2ccc(C(=O)NCC3CC3)nc2C(=O)O)cc1OC` [BCX4161], the Oral availability result in data set [1] is “orally available”.
In [2], `COCc1nn(Cc2ccc(Cn3ccccc3=O)cc2)cc1C(=O)NCc1nccc(OC)c1F` [Form 1, N-[(3-fluoro-4-methoxypyridin-2-yl)methyl]-3-(methoxymethyl)-1-({4-[(2-oxopyridin-1-yl)methyl]phenyl}methyl)pyrazole-4-carboxamide] yielded a solubility below 500 µg/mL. In addition, the “%-Wt (dry basis)” value stood at 0.04722% in data set [3] (adsorption, about 0 %-RH); 0.23% in [3] (adsorption, about 10 %-RH); 0.3541% in data set [3] (adsorption, about 20 %-RH); 0.7126% in [3] (adsorption, about 30 %-RH); 0.825% in data set [3] (adsorption, about 40 %-RH); 1.207% in data set [3] (adsorption, about 50 %-RH). For the same molecule, the “%-Wt (dry basis)” value in data set [3] (adsorption, about 60 %-RH) worked out at 1.699%; in [3] (adsorption, about 70 %-RH), 1.912%; in data set [3] (adsorption, about 80 %-RH), 2.186%; in data set [3] (adsorption, about 90 %-RH), 3.226%; in [3] (desorption, about 0 %-RH), 0.000368%; in data set [3] (desorption, about 5 %-RH), 0.1269%. For the same molecule, the “%-Wt (dry basis)” value in data set [3] (desorption, about 15 %-RH) turned out to be 0.5017%; in data set [3] (desorption, about 25 %-RH), 0.7008%; in data set [3] (desorption, about 35 %-RH), 1.017%; in data set [3] (desorption, about 45 %-RH), 1.525%; in data set [3] (desorption, about 55 %-RH), 1.685%; in data set [3] (desorption, about 65 %-RH), 1.865%. The “%-Wt (dry basis)” value in data set [3] (desorption, about 75 %-RH) is 2.116%; in [3] (desorption, about 85 %-RH) it was 2.547%. The “Increase in water content by GVS (hygroscopicity, in words)” value in data set [3] (up to 70% relative humidity) is listed as “only a relatively gradual increase in water content”. Also, the Appearance entry in data set [4] (25° C./60% RH, 1 month) was “Off-white”; in data set [4] (25° C./60% RH, 3 months), “Off-white”; in [4] (25° C./60% RH, Initial), “Off-white”; in data set [4] (40° C./75% RH, 1 month), “Off-white”; in data set [4] (40° C./75% RH, 3 months), “Off-white”; in data set [4] (40° C./75% RH, Initial), “Off-white”. Further, the “Assay by HPLC (on an anhydrous and solvent free basis)” value is given as 99.5 % w/w in data set [4] (25° C./60% RH, 1 month); 99.6 % w/w in data set [4] (25° C./60% RH, 3 months); 101.0 % w/w in [4] (25° C./60% RH, Initial); 99.5 % w/w in [4] (40° C./75% RH, 1 month); 100.0 % w/w in [4] (40° C./75% RH, 3 months); 101.0 % w/w in [4] (40° C./75% RH, Initial). The “DSC Tonset” value came out at 151.1 °C in data set [4] (25° C./60% RH, 1 month); 150.8 °C in data set [4] (25° C./60% RH, 3 months); 151.3 °C in data set [4] (25° C./60% RH, Initial); 151.1 °C in data set [4] (40° C./75% RH, 1 month); 150.6 °C in data set [4] (40° C./75% RH, 3 months); 151.3 °C in [4] (40° C./75% RH, Initial). Further, the “DSC Tpeak” value in data set [4] (25° C./60% RH, 1 month) worked out at 152.4 °C; in data set [4] (25° C./60% RH, 3 months) it was 152.2 °C; in [4] (25° C./60% RH, Initial), 152.9 °C; in data set [4] (40° C./75% RH, 1 month) it was 152.3 °C; in data set [4] (40° C./75% RH, 3 months), 152.5 °C; in [4] (40° C./75% RH, Initial), 152.9 °C. In addition, the “HPLC assay (on an “as is” basis)” value in [4] (25° C./60% RH, 1 month) is reported as 99.4 % w/w; in data set [4] (25° C./60% RH, 3 months) it was 99.5 % w/w; in [4] (25° C./60% RH, Initial) it was 100.9 % w/w; in data set [4] (40° C./75% RH, 1 month), 99.4 % w/w; in [4] (40° C./75% RH, 3 months), 99.9 % w/w; in [4] (40° C./75% RH, Initial), 100.9 % w/w. In addition, the “Polymorph by XRPD” value in [4] (25° C./60% RH, 1 month) is recorded as “Conforms to”; in [4] (25° C./60% RH, 3 months) it was “Conforms to”; in data set [4] (25° C./60% RH, Initial) it was “Conforms to”; in [4] (40° C./75% RH, 1 month), “Conforms to”; in [4] (40° C./75% RH, 3 months), “Conforms to”; in data set [4] (40° C./75% RH, Initial), “Conforms to”. The “Purity by HPLC” value was 99.62 area % in data set [4] (25° C./60% RH, 1 month); 99.70 area % in data set [4] (25° C./60% RH, 3 months); 99.70 area % in [4] (25° C./60% RH, Initial); 99.57 area % in data set [4] (40° C./75% RH, 1 month); 99.71 area % in data set [4] (40° C./75% RH, 3 months); 99.70 area % in data set [4] (40° C./75% RH, Initial). Also, the Total impurities was 0.38 area % in [4] (25° C./60% RH, 1 month); 0.30 area % in data set [4] (25° C./60% RH, 3 months); 0.30 area % in data set [4] (25° C./60% RH, Initial); 0.43 area % in data set [4] (40° C./75% RH, 1 month); 0.29 area % in data set [4] (40° C./75% RH, 3 months); 0.30 area % in data set [4] (40° C./75% RH, Initial). The “Water by Karl Fischer analysis” value in data set [4] (25° C./60% RH, 1 month) was below 0.1 % w/w; in data set [4] (25° C./60% RH, 3 months), below 0.1 % w/w; in data set [4] (25° C./60% RH, Initial), below 0.1 % w/w; in data set [4] (40° C./75% RH, 1 month), below 0.1 % w/w; in data set [4] (40° C./75% RH, 3 months) it was 0.1 % w/w; in [4] (40° C./75% RH, Initial), below 0.1 % w/w. Also, the “Change in the XRPD diffractogram on storage” value in data set [4] (25° C./60% RH) and in data set [4] (40° C./75% RH) was “no change” throughout. For the same molecule, the “XRPD of solid after slurry versus starting form” value in data set [5] is reported as “different to that of FIG. 2a”.
Molecule `COCc1nn(Cc2ccc(Cn3ccccc3=O)cc2)cc1C(=O)NCc1nccc(OC)c1F` [N-[(3-fluoro-4-methoxypyridin-2-yl)methyl]-3-(methoxymethyl)-1-({4-[(2-oxopyridin-1-yl)methyl]phenyl}methyl)pyrazole-4-carboxamide] yielded a half-inhibitory concentration (IC50) in data set [6] above 40 µM.
For `Cl.NCC1CCC(C(=O)N[C@@H](Cc2ccccc2)C(=O)Nc2ccc(CC(=O)O)cc2)CC1` (stereo partly shown) [PKSI-527], in data set [7], the “Effect on platelet count, fibrinogen level and FDP level” value was “significantly suppressed the decrease in platelet count and fibrinogen level as well as the increase in FDP level”.
Consider Ecallantide, for which, in data set [8], the “Activated clotting time (ACT)” value is “increase in activated clotting time (ACT)”. Besides, in [9], the “Contact activated induced coagulation” value is “delay contact activated induced coagulation”. Moreover, the Anaphylactic reactions result in [10] is “risks of anaphylactic reactions”.
